Laboratory results: PubChem BioAssay AID1963438 (Molecular Pharmacology Branch, DTP, NCI, 2024)
Values joined by “and” are separate entries in the source; they are usually repeats but may differ in a detail not shown here. Equal values may be shown once.

Test system: NCI-H510 multicellular tumor spheroid growth, % test/control
Test: Anticancer human tumor NCI-H510 cell line growth inhibition [Asc];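 note: spheroids exposed to agents for 7 days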;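 for viability, T/C: 100% = DMSO vehicle control wells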
Details: for viability, T/C: stronger effect = lower value
Summary of the method: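 Spheroid model: tumor line + HUVEC + hMSC. Single agents and combinations; top conc. at/near clinical Cmax (10 microM if undetermined), half-log dilutions. DMSO stocks at 800-fold test concentration.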

[1] = curve of first compound, second compound 0.1 µM
[2] = curve of first compound, second compound 0.316 µM
[3] = curve of first compound, second compound 1 µM
[4] = curve of first compound, second compound 3.16 µM
[5] = curve of first compound, second compound 10 µM
[6] = second compound 0.1 µM, first compound 0.0316 µM
[7] = second compound 0.1 µM, first compound 0.1 µM
[8] = second compound 0.1 µM, first compound 0.316 µM
[9] = second compound 0.1 µM, first compound 1 µM
[10] = second compound 0.316 µM, first compound 0.0316 µM
[11] = second compound 0.316 µM, first compound 0.1 µM
[12] = second compound 0.316 µM, first compound 0.316 µM
[13] = second compound 0.316 µM, first compound 1 µM
[14] = second compound 1 µM, first compound 0.0316 µM
[15] = second compound 1 µM, first compound 0.1 µM
[16] = second compound 1 µM, first compound 0.316 µM
[17] = second compound 1 µM, first compound 1 µM
[18] = second compound 0.1 µM, first compound 0.00316 µM
[19] = second compound 0.1 µM, first compound 0.01 µM
[20] = second compound 0.316 µM, first compound 0.00316 µM
[21] = second compound 0.316 µM, first compound 0.01 µM
[22] = second compound 1 µM, first compound 0.00316 µM
[23] = second compound 1 µM, first compound 0.01 µM
[24] = second compound 3.16 µM, first compound 0.00316 µM
[25] = second compound 3.16 µM, first compound 0.01 µM
[26] = second compound 3.16 µM, first compound 0.0316 µM
[27] = second compound 3.16 µM, first compound 0.1 µM
[28] = second compound 3.16 µM, first compound 0.316 µM
[29] = second compound 3.16 µM, first compound 1 µM
[30] = second compound 10 µM, first compound 0.00316 µM
[31] = second compound 10 µM, first compound 0.01 µM
[32] = second compound 10 µM, first compound 0.0316 µM
[33] = second compound 10 µM, first compound 0.1 µM
[34] = second compound 10 µM, first compound 0.316 µM
[35] = second compound 10 µM, first compound 1 µM

With `NC(=O)C(=Cn1cnc(-c2cc(C(F)(F)F)cc(C(F)(F)F)c2)n1)c1cncnc1` + Cc1c(S(C)(=O)=O)c(-c2cc(F)cc(N3CCN(c4ccc(NS(=O)(=O)c5ccc(NC(CCN6CCC(C(=O)OCCCP(=O)(O)O)CC6)CSc6ccccc6)c(S(=O)(=O)C(F)(F)F)c5)cc4)CC3)c2)c(-c2ccc(Cl)cc2)n1C(C)C the IC50 [1] was 199 nM, the IC50 [2] was 126 nM and the IC50 [3] was 73.4 nM. The IC50 [4] was 169 nM, the IC50 [5] was 53.4 nM and the viability, T/C (second compound 0.1 µM, first compound 0.000949 µM) was 87%. For the same compound, the viability, T/C (second compound 0.1 µM, first compound 0.003 µM) was 76.6%, the viability, T/C (second compound 0.1 µM, first compound 0.00949 µM) was 109% and the viability, T/C (second compound 0.1 µM, first compound 0.03 µM) was 74.3%. It also gave a viability, T/C (second compound 0.1 µM, first compound 0.0949 µM) of 86.7%, a viability, T/C (second compound 0.1 µM, first compound 0.3 µM) of 29.6% and a viability, T/C (second compound 0.316 µM, first compound 0.000949 µM) of 102%. The viability, T/C (second compound 0.316 µM, first compound 0.003 µM) was 73.5%, the viability, T/C (second compound 0.316 µM, first compound 0.00949 µM) was 103% and the viability, T/C (second compound 0.316 µM, first compound 0.03 µM) was 78.2%. It also gave a viability, T/C (second compound 0.316 µM, first compound 0.0949 µM) of 66.8%, a viability, T/C (second compound 0.316 µM, first compound 0.3 µM) of 4.66% and a viability, T/C (second compound 1 µM, first compound 0.000949 µM) of 88.5%. It also gave a viability, T/C (second compound 1 µM, first compound 0.003 µM) of 76.9%, a viability, T/C (second compound 1 µM, first compound 0.00949 µM) of 88.9% and a viability, T/C (second compound 1 µM, first compound 0.03 µM) of 74%. It also gave a viability, T/C (second compound 1 µM, first compound 0.0949 µM) of 43%, a viability, T/C (second compound 1 µM, first compound 0.3 µM) of 6.15% and a viability, T/C (second compound 3.16 µM, first compound 0.000949 µM) of 79.2%. For the same compound, the viability, T/C (second compound 3.16 µM, first compound 0.003 µM) was 88.6%, the viability, T/C (second compound 3.16 µM, first compound 0.00949 µM) was 94.8% and the viability, T/C (second compound 3.16 µM, first compound 0.03 µM) was 59.2%. For the same compound, the viability, T/C (second compound 3.16 µM, first compound 0.0949 µM) was 89%, the viability, T/C (second compound 3.16 µM, first compound 0.3 µM) was 18.3% and the viability, T/C (second compound 10 µM, first compound 0.000949 µM) was 76.1%. The viability, T/C (second compound 10 µM, first compound 0.003 µM) was 84.5%, the viability, T/C (second compound 10 µM, first compound 0.00949 µM) was 59.3% and the viability, T/C (second compound 10 µM, first compound 0.03 µM) was 70%. The viability, T/C (second compound 10 µM, first compound 0.0949 µM) was 35% and the viability, T/C (second compound 10 µM, first compound 0.3 µM) was 1.98%.

Compound `C=CC(=O)N1CCN(c2nc(=O)n(-c3c(C)ccnc3C(C)C)c3nc(-c4c(O)cccc4F)c(F)cc23)C(C)C1` (configuration not stated) + CNC(C)C(=O)NC1CN(S(=O)(=O)c2cccc(S(=O)(=O)N3CCC4CCC(C(=O)NC(c5ccccc5)c5ccccc5)N4C(=O)C(NC(=O)C(C)NC)C3)c2)CCC2CCC(C(=O)NC(c3ccccc3)c3ccccc3)N2C1=O has an IC50 (curve of first compound, second compound 0.01 µM) greater than 10000 nM, an IC50 (curve of first compound, second compound 0.0316 µM) greater than 10000 nM and an IC50 [1] greater than 10000 nM. For the same compound, the IC50 [2] was greater than 10000 nM, the IC50 [3] was greater than 10000 nM and the viability, T/C (second compound 0.01 µM, first compound 0.0316 µM) was 115%. It also gave a viability, T/C (second compound 0.01 µM, first compound 0.1 µM) of 101%, a viability, T/C (second compound 0.01 µM, first compound 0.316 µM) of 102% and a viability, T/C (second compound 0.01 µM, first compound 1 µM) of 115%. It also gave a viability, T/C (second compound 0.01 µM, first compound 3.16 µM) of 113%, a viability, T/C (second compound 0.01 µM, first compound 10 µM) of 115% and a viability, T/C (second compound 0.0316 µM, first compound 0.0316 µM) of 105%. It also gave a viability, T/C (second compound 0.0316 µM, first compound 0.1 µM) of 108%, a viability, T/C (second compound 0.0316 µM, first compound 0.316 µM) of 95.6% and a viability, T/C (second compound 0.0316 µM, first compound 1 µM) of 119%. It also gave a viability, T/C (second compound 0.0316 µM, first compound 3.16 µM) of 104%, a viability, T/C (second compound 0.0316 µM, first compound 10 µM) of 110% and a viability, T/C [6] of 112%. It also gave a viability, T/C [7] of 95.8%, a viability, T/C [8] of 102% and a viability, T/C [9] of 91.9%. The viability, T/C (second compound 0.1 µM, first compound 3.16 µM) was 105%, the viability, T/C (second compound 0.1 µM, first compound 10 µM) was 106% and the viability, T/C [10] was 110%. It also gave a viability, T/C [11] of 113%, a viability, T/C [12] of 102% and a viability, T/C [13] of 95.8%. The viability, T/C (second compound 0.316 µM, first compound 3.16 µM) was 104%, the viability, T/C (second compound 0.316 µM, first compound 10 µM) was 93.3% and the viability, T/C [14] was 96.5%. It also gave a viability, T/C [15] of 105%, a viability, T/C [16] of 107% and a viability, T/C [17] of 101%. For the same compound, the viability, T/C (second compound 1 µM, first compound 3.16 µM) was 98.2% and the viability, T/C (second compound 1 µM, first compound 10 µM) was 110%.

`COc1c(OCCCN2CCOCC2)ccc2c3n(c(=NC(=O)c4cnc(N)nc4)nc12)CCN3` + Cc1c(S(C)(=O)=O)c(-c2cc(F)cc(N3CCN(c4ccc(NS(=O)(=O)c5ccc(NC(CCN6CCC(C(=O)OCCCP(=O)(O)O)CC6)CSc6ccccc6)c(S(=O)(=O)C(F)(F)F)c5)cc4)CC3)c2)c(-c2ccc(Cl)cc2)n1C(C)C was tested, and the IC50 [1] was greater than 1000 nM, the IC50 [2] was greater than 1000 nM and the IC50 [3] was greater than 1000 nM. The IC50 [4] was greater than 1000 nM, the IC50 [5] was 231 nM and the viability, T/C [18] was 112%. The viability, T/C [19] was 106%, the viability, T/C [6] was 88.9% and the viability, T/C [7] was 89.3%. It also gave a viability, T/C [8] of 96.4%, a viability, T/C [9] of 84.3% and a viability, T/C [20] of 102%. It also gave a viability, T/C [21] of 99.6%, a viability, T/C [10] of 70.3% and a viability, T/C [11] of 75%. The viability, T/C [12] was 89.1%, the viability, T/C [13] was 53.6% and the viability, T/C [22] was 99.8%. The viability, T/C [23] was 98.1%, the viability, T/C [14] was 106% and the viability, T/C [15] was 91.2%. The viability, T/C [16] was 67.5%, the viability, T/C [17] was 86.1% and the viability, T/C [24] was 89.4%. It also gave a viability, T/C [25] of 91.6%, a viability, T/C [26] of 82.6% and a viability, T/C [27] of 80%. The viability, T/C [28] was 82.6%, the viability, T/C [29] was 63.8% and the viability, T/C [30] was 66%. It also gave a viability, T/C [31] of 98.4%, a viability, T/C [32] of 70.9% and a viability, T/C [33] of 96.3%. It also gave a viability, T/C [34] of 37.6% and a viability, T/C [35] of 32.2%.

`CNC(C)C(=O)NC1CN(S(=O)(=O)c2cccc(S(=O)(=O)N3CCC4CCC(C(=O)NC(c5ccccc5)c5ccccc5)N4C(=O)C(NC(=O)C(C)NC)C3)c2)CCC2CCC(C(=O)NC(c3ccccc3)c3ccccc3)N2C1=O` (configuration not stated) + Cc1c(S(C)(=O)=O)c(-c2cc(F)cc(N3CCN(c4ccc(NS(=O)(=O)c5ccc(NC(CCN6CCC(C(=O)OCCCP(=O)(O)O)CC6)CSc6ccccc6)c(S(=O)(=O)C(F)(F)F)c5)cc4)CC3)c2)c(-c2ccc(Cl)cc2)n1C(C)C showed an IC50 [1] greater than 1000 nM, an IC50 [2] greater than 1000 nM and an IC50 [3] greater than 1000 nM. The IC50 [4] was greater than 1000 nM, the IC50 [5] was greater than 1000 nM and the viability, T/C [18] was 114%. For the same compound, the viability, T/C [19] was 122%, the viability, T/C [6] was 111% and the viability, T/C [7] was 120%. The viability, T/C [8] was 99.8%, the viability, T/C [9] was 128% and the viability, T/C [20] was 93.6%. For the same compound, the viability, T/C [21] was 117%, the viability, T/C [10] was 107% and the viability, T/C [11] was 102%. It also gave a viability, T/C [12] of 104%, a viability, T/C [13] of 112% and a viability, T/C [22] of 115%. For the same compound, the viability, T/C [23] was 97.5%, the viability, T/C [14] was 107% and the viability, T/C [15] was 103%. It also gave a viability, T/C [16] of 76.9%, a viability, T/C [17] of 91% and a viability, T/C [24] of 102%. It also gave a viability, T/C [25] of 112%, a viability, T/C [26] of 109% and a viability, T/C [27] of 96.6%. The viability, T/C [28] was 85.7%, the viability, T/C [29] was 104% and the viability, T/C [30] was 110%. For the same compound, the viability, T/C [31] was 104%, the viability, T/C [32] was 70.4% and the viability, T/C [33] was 87.7%. For the same compound, the viability, T/C [34] was 111% and the viability, T/C [35] was 98.6%.

`NC(=O)C(=Cn1cnc(-c2cc(C(F)(F)F)cc(C(F)(F)F)c2)n1)c1cncnc1` was tested, and the viability, T/C (compound 0.000949 µM) was 91.3% and 79.1% and 81.8%, the viability, T/C (compound 0.003 µM) was 95.1% and 92.5% and 90.3% and the viability, T/C (compound 0.00949 µM) was 97.5% and 68.2% and 97.9%. The viability, T/C (compound 0.03 µM) was 87.7% and 81.1% and 98%, the viability, T/C (compound 0.0949 µM) was 76% and 44% and 86.5% and the viability, T/C (compound 0.3 µM) was 14.6% and 47% and 69.7%. For the same compound, the IC50 (curve of compound) was 154 nM and 81.7 nM and > 300 nM.
